Molecular target: human capsaicin receptor (VR1) (Homo sapiens, UniProt Q8NER1)
Assay: Capsaicin receptor binding assay ([3H]RTX competition, VR1-transfected HEK293 membranes)

Chain of human capsaicin receptor (VR1) (Q8NER1 whole entry): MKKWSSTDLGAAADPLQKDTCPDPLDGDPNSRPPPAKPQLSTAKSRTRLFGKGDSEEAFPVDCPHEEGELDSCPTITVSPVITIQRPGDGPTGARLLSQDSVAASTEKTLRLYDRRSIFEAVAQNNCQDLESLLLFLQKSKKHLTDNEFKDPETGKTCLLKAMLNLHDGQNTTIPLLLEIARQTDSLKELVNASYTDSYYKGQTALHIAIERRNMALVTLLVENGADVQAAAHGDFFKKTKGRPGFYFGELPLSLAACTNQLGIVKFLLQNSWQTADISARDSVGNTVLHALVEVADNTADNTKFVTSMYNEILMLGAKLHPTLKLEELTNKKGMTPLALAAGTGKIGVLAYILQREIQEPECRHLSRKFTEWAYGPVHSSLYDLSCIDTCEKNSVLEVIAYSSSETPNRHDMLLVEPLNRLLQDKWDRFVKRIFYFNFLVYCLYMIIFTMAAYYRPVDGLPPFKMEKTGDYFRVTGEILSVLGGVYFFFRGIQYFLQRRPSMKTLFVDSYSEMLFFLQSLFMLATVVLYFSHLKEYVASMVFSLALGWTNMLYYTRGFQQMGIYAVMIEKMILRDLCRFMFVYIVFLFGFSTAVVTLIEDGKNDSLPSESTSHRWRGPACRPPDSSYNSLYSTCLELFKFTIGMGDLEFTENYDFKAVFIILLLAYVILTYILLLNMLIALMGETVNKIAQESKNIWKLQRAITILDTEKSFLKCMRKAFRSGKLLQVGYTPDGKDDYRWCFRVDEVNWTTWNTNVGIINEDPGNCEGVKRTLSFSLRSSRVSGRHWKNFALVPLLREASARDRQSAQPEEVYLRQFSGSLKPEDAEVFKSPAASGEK

| Ki [nM] | Compound |
| --- | --- |
| < 1000 | CCC(=O)N1CCC(c2nc(Nc3ccc(C(F)(F)F)cc3)c3ccc(-c4ncccc4C(F)(F)F)cc3n2)CC1 [Compound 694, 1-{4-[4-(4-Trifluoromethyl-phenylamino)-7-(3-trifluoromethyl-pyridin-2-yl)-quinazolin-2-yl]-piperidin-1-yl}-propan-1-one] |
| < 1000 | FC(F)(F)c1ccc(Nc2nc([C@@H]3CCCN3)nc3cc(-c4ncccc4C(F)(F)F)ccc23)cc1 [Compound 695, (S)-[2-Pyrrolidin-2-yl-7-(3-trifluoromethyl-pyridin-2-yl)-quinazolin-4-yl]-(4-trifluoromethyl-phenyl)-amine] |
| < 1000 | CCCN1CCC[C@H]1c1nc(Nc2ccc(C(F)(F)F)cc2)c2ccc(-c3ncccc3C(F)(F)F)cc2n1 [Compound 696, (S)-[2-(1-Propyl-pyrrolidin-2-yl)-7-(3-trifluoromethyl-pyridin-2-yl)-quinazolin-4-yl]-(4-trifluoromethyl-phenyl)-amine] |
| < 1000 | CC(C)(C)c1ccc(Nc2nc(CN3CCCS3(=O)=O)nc3cc(-c4ncccc4C(F)(F)F)ccc23)cc1 [Compound 697, (4-tert-Butyl-phenyl)-[2-(1,1-dioxo-1λ^6-isothiazolidin-2-ylmethyl)-7-(3-trifluoromethyl-pyridin-2-yl)-quinazolin-4-yl]-amine] |
| < 1000 | CC(=O)c1ccc(Nc2nc(CN3C[C@@H](C)O[C@@H](C)C3)nc3cc(-c4ncccc4C(F)(F)F)cnc23)cc1 [Compound 698, 1-{4-[2-(2,6-Dimethyl-morpholin-4-ylmethyl)-7-(3-trifluoromethyl-pyridin-2-yl)-pyrido[3,2-d]pyrimidin-4-ylamino]-phenyl}-ethanone (cis)] |
| < 1000 | FC(F)(F)c1ccc(Nc2nc(Cn3ccnc3)nc3cc(-c4ncccc4C(F)(F)F)cnc23)cc1 [Compound 699, [2-Imidazol-1-ylmethyl-7-(3-trifluoromethyl-pyridin-2-yl)-pyrido[3,2-d]pyrimidin-4-yl]-(4-trifluoromethyl-phenyl)-amine] |
| < 1000 | FC(F)(F)c1ccc(Nc2nc(Cn3ccnc3)nc3cc(-c4ncccc4Cl)cnc23)cc1 [Compound 700, [7-(3-Chloro-pyridin-2-yl)-2-imidazol-1-ylmethyl-pyrido[3,2-d]pyrimidin-4-yl]-(4-trifluoromethyl-phenyl)-amine] |
| < 1000 | C[C@@H]1CN(C(=O)c2nc(Nc3ccc(C(F)(F)F)cc3)c3ccc(-c4ncccc4C(F)(F)F)cc3n2)C[C@H](C)O1 [Compound 702, (2,6-Dimethyl-morpholin-4-yl)-[4-(4-trifluoromethyl-phenylamino)-7-(3-trifluoromethyl-pyridin-2-yl)-quinazolin-2-yl]-methanone (cis)] |
| < 1000 | CS(=O)(=O)N1CCC(c2nc(Nc3ccc(C(F)(F)F)cc3)c3ccc(-c4ncccc4C(F)(F)F)cc3n2)CC1 [Compound 703, [2-(1-Methanesulfonyl-piperidin-4-yl)-7-(3-trifluoromethyl-pyridin-2-yl)-quinazolin-4-yl]-(4-trifluoromethyl-phenyl)-amine] |
| < 1000 | CC(C)(CO)NCc1nc(Nc2ccc(C(F)(F)F)cc2)c2ccc(-c3ncccc3C(F)(F)F)cc2n1 [Compound 704, 2-Methyl-2-{[4-(4-trifluoromethyl-phenylamino)-7-(3-trifluoromethyl-pyridin-2-yl)-quinazolin-2-ylmethyl]-amino}-propan-1-ol] |
| < 1000 | CN1CCCN(Cc2nc(Nc3ccc(C(F)(F)F)cc3)c3ccc(-c4ncccc4C(F)(F)F)cc3n2)CC1 [Compound 705, [2-(4-Methyl-[1,4]diazepan-1-ylmethyl)-7-(3-trifluoromethyl-pyridin-2-yl)-quinazolin-4-yl]-(4-trifluoromethyl-phenyl)-amine] |
| < 1000 | CN(C)CCCN(C)Cc1nc(Nc2ccc(C(F)(F)F)cc2)c2ccc(-c3ncccc3C(F)(F)F)cc2n1 [Compound 706, N,N,N′-Trimethyl-N′-[4-(4-trifluoromethyl-phenylamino)-7-(3-trifluoromethyl-pyridin-2-yl)-quinazolin-2-ylmethyl]-propane-1,3-diamine] |
| < 1000 | CN(C)C(=O)c1nc(Nc2ccc(C(F)(F)F)cc2)c2ccc(-c3ncccc3C(F)(F)F)cc2n1 [Compound 707, 4-(4-Trifluoromethyl-phenylamino)-7-(3-trifluoromethyl-pyridin-2-yl)-quinazoline-2-carboxylic acid dimethylamide] |
| < 1000 | CNC(=O)c1nc(Nc2ccc(C(F)(F)F)cc2)c2ccc(-c3ncccc3C(F)(F)F)cc2n1 [Compound 708, 4-(4-Trifluoromethyl-phenylamino)-7-(3-trifluoromethyl-pyridin-2-yl)-quinazoline-2-carboxylic acid methylamide] |
| < 1000 | O=C(NCCN1CCOCC1)c1nc(Nc2ccc(C(F)(F)F)cc2)c2ccc(-c3ncccc3C(F)(F)F)cc2n1 [Compound 709, 4-(4-Trifluoromethyl-phenylamino)-7-(3-trifluoromethyl-pyridin-2-yl)-quinazoline-2-carboxylic acid (2-morpholin-4-yl-ethyl)-amide] |
| < 1000 | C[C@@H]1CN(Cc2nc(Nc3ccc(C4CC4)cc3)c3ccc(-c4ncccc4C(F)(F)F)cc3n2)C[C@H](C)O1 [Compound 710, (4-Cyclopropyl-phenyl)-[2-(2,6-dimethyl-morpholin-4-ylmethyl)-7-(3-trifluoromethyl-pyridin-2-yl)-quinazolin-4-yl]-amine (cis)] |

The next lines start with the compound.

| Compound | Ki [nM] |
| --- | --- |
| CCC(C)c1ccc(Nc2nc(CN3C[C@@H](C)O[C@@H](C)C3)nc3cc(-c4ncccc4Cl)ccc23)cc1 (stereo partly drawn) [Compound 680, (4-sec-Butyl-phenyl)-[7-(3-chloro-pyridin-2-yl)-2-(2,6-dimethyl-morpholin-4-ylmethyl)-quinazolin-4-yl]-amine (cis)] | < 1000 |
| CC(C)c1ccc(Nc2nc(CN3C[C@@H](C)O[C@@H](C)C3)nc3cc(-c4ncccc4Cl)ccc23)cc1 [Compound 681, [7-(3-Chloro-pyridin-2-yl)-2-(2,6-dimethyl-morpholin-4-ylmethyl)-quinazolin-4-yl]-(4-isopropyl-phenyl)-amine (cis)] | < 1000 |
| C[C@@H]1CN(Cc2nc(Nc3ccc(C(C)(C)C)cc3)c3ccc(-c4ncccc4C(F)(F)F)cc3n2)CCO1 [Compound 682, (R)-(4-tert-Butyl-phenyl)-[2-(2-methyl-morpholin-4-ylmethyl)-7-(3-trifluoromethyl-pyridin-2-yl)-quinazolin-4-yl]-amine] | < 1000 |
| C[C@@H]1CN(Cc2nc(Nc3ccc(C(F)(F)F)cc3)c3ccc(-c4ncccc4C(F)(F)F)cc3n2)CCO1 [Compound 683, (R)-[2-(2-Methyl-morpholin-4-ylmethyl)-7-(3-trifluoromethyl-pyridin-2-yl)-quinazolin-4-yl]-(4-trifluoromethyl-phenyl)-amine] | < 1000 |
| CC(C)c1ccc(Nc2nc(CN3CCO[C@H](C)C3)nc3cc(-c4ncccc4C(F)(F)F)ccc23)cc1 [Compound 684, (R)-(4-Isopropyl-phenyl)-[2-(2-methyl-morpholin-4-ylmethyl)-7-(3-trifluoromethyl-pyridin-2-yl)-quinazolin-4-yl]-amine] | < 1000 |
| C[C@H]1CN(Cc2nc(Nc3ccc(C(C)(C)C)cc3)c3ccc(-c4ncccc4C(F)(F)F)cc3n2)CCO1 [Compound 685, (S)-(4-tert-Butyl-phenyl)-[2-(2-methyl-morpholin-4-ylmethyl)-7-(3-trifluoromethyl-pyridin-2-yl)-quinazolin-4-yl]-amine] | < 1000 |
| C[C@H]1CN(Cc2nc(Nc3ccc(C(F)(F)F)cc3)c3ccc(-c4ncccc4C(F)(F)F)cc3n2)CCO1 [Compound 686, (S)-[2-(2-Methyl-morpholin-4-ylmethyl)-7-(3-trifluoromethyl-pyridin-2-yl)-quinazolin-4-yl]-(4-trifluoromethyl-phenyl)-amine] | < 1000 |
| CC(C)c1ccc(Nc2nc(CN3CCO[C@@H](C)C3)nc3cc(-c4ncccc4C(F)(F)F)ccc23)cc1 [Compound 687, (S)-(4-Isopropyl-phenyl)-[2-(2-methyl-morpholin-4-ylmethyl)-7-(3-trifluoromethyl-pyridin-2-yl)-quinazolin-4-yl]-amine] | < 1000 |
| CC(C)c1ccc(Nc2nc(CN3C[C@@H](C)O[C@@H](C)C3)nc3cc(-c4ncccc4C(F)(F)F)ccc23)cc1 [Compound 688, [2-(2,6-Dimethyl-morpholin-4-ylmethyl)-7-(3-trifluoromethyl-pyridin-2-yl)-quinazolin-4-yl]-(4-isopropyl-phenyl)-amine (cis)] | < 1000 |
| CCN1CCC(c2nc(Nc3ccc(C(F)(F)F)cc3)c3ccc(-c4ncccc4C(F)(F)F)cc3n2)CC1 [Compound 689, [2-(1-Ethyl-piperidin-4-yl)-7-(3-trifluoromethyl-pyridin-2-yl)-quinazolin-4-yl]-(4-trifluoromethyl-phenyl)-amine] | < 1000 |
| CCCN1CCC(c2nc(Nc3ccc(C(F)(F)F)cc3)c3ccc(-c4ncccc4C(F)(F)F)cc3n2)CC1 [Compound 690, [2-(1-Propyl-piperidin-4-yl)-7-(3-trifluoromethyl-pyridin-2-yl)-quinazolin-4-yl]-(4-trifluoromethyl-phenyl)-amine] | < 1000 |
| FC(F)(F)c1ccc(Nc2nc(C3CCN(Cc4ccncc4)CC3)nc3cc(-c4ncccc4C(F)(F)F)ccc23)cc1 [Compound 691, [2-(1-Pyridin-4-ylmethyl-piperidin-4-yl)-7-(3-trifluoromethyl-pyridin-2-yl)-quinazolin-4-yl]-(4-trifluoromethyl-phenyl)-amine] | < 1000 |
| Cn1ccnc1CN1CCC(c2nc(Nc3ccc(C(F)(F)F)cc3)c3ccc(-c4ncccc4C(F)(F)F)cc3n2)CC1 [Compound 692, [2-[1-(1-Methyl-1H-imidazol-2-ylmethyl)-piperidin-4-yl]-7-(3-trifluoromethyl-pyridin-2-yl)-quinazolin-4-yl]-(4-trifluoromethyl-phenyl)-amine] | < 1000 |
| CC(=O)N1CCC(c2nc(Nc3ccc(C(F)(F)F)cc3)c3ccc(-c4ncccc4C(F)(F)F)cc3n2)CC1 [Compound 693, 1-{4-[4-(4-Trifluoromethyl-phenylamino)-7-(3-trifluoromethyl-pyridin-2-yl)-quinazolin-2-yl]-piperidin-1-yl}-ethanone] | < 1000 |

Reference: US20040156869A1, “2-substituted quinazolin-4-ylamine analogues” (Neurogen Corporation, priority 2002, published 2004)
